Data on one compound can be found in ChEMBL document CHEMBL1138438, “Structural-activity relationship study of highly-functionalized imidazolines as potent inhibitors of nuclear transcription factor-kappaB mediated IL-6 production” (Bioorg Med Chem, 2009).

For data set [1], the system named is HeLa. As to the kind of experiment: Cell cycle arrest in TNF-alpha-stimulated human HeLa cells transfected with NFkappaB-Luc assessed as accumulation at diploid G2 phase at 0.05 uM after 8 hrs by using propidium iodide staining by FACS analysis. In kind it is functional. Background: In flow cytometry, cells or beads pass a laser one at a time.
Data set [2] has as its system HeLa. Description: Cell cycle arrest in human HeLa cells transfected with NFkappaB-Luc assessed as accumulation at diploid S phase at 20 uM after 8 hrs by using propidium iodide staining by FACS analysis. In kind it is functional.
The subject of data set [3] is HeLa. Description: Cell cycle arrest in TNF-alpha-stimulated human HeLa cells transfected with NFkappaB-Luc assessed as accumulation at G2/G1 phase at 0.1 uM after 8 hrs by using propidium iodide staining by FACS analysis. It is filed as functional.
Data set [4] has as its system HeLa. Description: Cell cycle arrest in TNF-alpha-stimulated human HeLa cells transfected with NFkappaB-Luc assessed as accumulation at diploid G2 phase at 5 uM after 8 hrs by using propidium iodide staining by FACS analysis. It is filed as functional.
The nature of data set [5]: Cytotoxicity against human whole blood lymphocytes assessed as survival cell count in millions at 10 uM after 24 hrs by trypan blue staining-based hemocytometry.
The test system of data set [6] is HeLa. As to the kind of experiment: Effect on cell cycle arrest in TNF-alpha-stimulated human HeLa cells transfected with NFkappaB-Luc assessed as cell debris level at 0.5 uM after 8 hrs by using propidium iodide staining by FACS analysis. It is filed as functional.
Data set [7] is described as follows: Cytotoxicity against IL-1-beta-stimulated human whole blood lymphocytes assessed as survival cell count in millions at 1 uM after 24 hrs by trypan blue staining-based hemocytometry.
Data set [8] concerns HeLa. Description: Effect on cell cycle arrest in TNF-alpha-stimulated human HeLa cells transfected with NFkappaB-Luc assessed as total background cell aggregate and debris level at 10 uM after 8 hrs by using propidium iodide staining by FACS analysis. It is filed as functional.
A short description of data set [9]: Cytotoxicity against IL-1-beta-stimulated human whole blood lymphocytes assessed as survival cell count in millions at 10 uM after 24 hrs by trypan blue staining-based hemocytometry.
The subject of data set [10] is HeLa. Description: Cell cycle arrest in TNF-alpha-stimulated human HeLa cells transfected with NFkappaB-Luc assessed as accumulation at diploid stage at 5 uM after 8 hrs by using propidium iodide staining by FACS analysis. It is filed as functional.
For data set [11], the system named is HeLa. Description: Effect on cell cycle arrest in TNF-alpha-stimulated human HeLa cells transfected with NFkappaB-Luc assessed as cell aggregate level at 5 uM after 8 hrs by using propidium iodide staining by FACS analysis. In kind it is functional.
The test system of data set [12] is HeLa. Description: Stimulation of NF-kappaB-mediated gene transcription expressed in human HeLa cells for 30 mins before TNFalpha challenge measured after 8 hrs by steady-glo luciferase reporter gene assay. In kind it is cell-based. (Reporter assays use an easily measured gene product as a stand-in for the process of interest.)
Data set [13] is described as follows: Inhibition of NF-kappaB-mediated gene transcription expressed in TNF-alpha-stimulated human HeLa cells co-transfected with renilla luciferase-TK gene preincubated for 30 mins before TNFalpha challenge measured after 8 hrs by dual-glo luciferase reporter gene assay. In kind it is cell-based.
Data set [14] has as its system HeLa. As to the kind of experiment: Effect on cell cycle arrest in human HeLa cells transfected with NFkappaB-Luc assessed as cell aggregate level at 20 uM after 8 hrs by using propidium iodide staining by FACS analysis. It is filed as functional.
The subject of data set [15] is HeLa. As to the kind of experiment: Cell cycle arrest in TNF-alpha-stimulated human HeLa cells transfected with NFkappaB-Luc assessed as accumulation at G2/G1 phase at 0.5 uM after 8 hrs by using propidium iodide staining by FACS analysis. It is filed as functional.
Data set [16] deals with HeLa. Description: Cell cycle arrest in TNF-alpha-stimulated human HeLa cells transfected with NFkappaB-Luc assessed as accumulation at diploid S phase at 0.05 uM after 8 hrs by using propidium iodide staining by FACS analysis. It is filed as functional.
A short description of data set [17]: Inhibition of NF-kappaB-mediated gene transcription expressed in TNF-alpha-stimulated human HeLa cells for 30 mins before TNFalpha challenge measured after 8 hrs by steady-glo luciferase reporter gene assay. In kind it is cell-based.
Data set [18] relates to HeLa. Description: Cell cycle arrest in TNF-alpha-stimulated human HeLa cells transfected with NFkappaB-Luc assessed as accumulation at total S phase at 20 uM after 8 hrs by using propidium iodide staining by FACS analysis. In kind it is functional.
Data set [19] relates to HeLa. Description: Cell cycle arrest in TNF-alpha-stimulated human HeLa cells transfected with NFkappaB-Luc assessed as accumulation at total S phase at 0.05 uM after 8 hrs by using propidium iodide staining by FACS analysis. In kind it is functional.
The subject of data set [20] is HeLa. Description: Effect on cell cycle arrest in TNF-alpha-stimulated human HeLa cells transfected with NFkappaB-Luc assessed as cell debris level at 0.1 uM after 8 hrs by using propidium iodide staining by FACS analysis. It is filed as functional.
Data set [21] deals with HeLa. Description: Effect on cell cycle arrest in human HeLa cells transfected with NFkappaB-Luc assessed as total background cell aggregate and debris level at 20 uM after 8 hrs by using propidium iodide staining by FACS analysis. It is filed as functional.

Active and inactive are the calls of the source. The rule behind the calls is not given here.

For `CCOC(=O)[C@]1(c2ccccc2)N=C(c2ccccc2)N(Cc2ccccc2)[C@@H]1c1ccccc1` (racemic), the Activity is 12.9% with HeLa [1]; 21.48% in the data set with HeLa [2]; 1.92% in the data set with HeLa [3]; 13.84% in the data set with HeLa [4]; 1.04 mL⁻¹ in data set [5]; 3.68% in the data set on HeLa [6]. Besides, the Activity in data set [7] came out at 1.18 mL⁻¹; in the data set on HeLa [8], 6.27%; in data set [9], 0.92 mL⁻¹; with HeLa [10], 100%; in the data set on HeLa [11], 0%; in the data set on HeLa [14], 0%. For the same compound, the Activity in the data set on HeLa [15] is 1.91%; in the data set with HeLa [16], 22.8%; in the data set on HeLa [18] it was 19.29%; with HeLa [19], 22.8%; in the data set on HeLa [20], 2%; with HeLa [21], 3.86%. In addition, the outcome with HeLa [12] was inactive. For the same compound, the EC50 in [13] stood at 4.67 µM; in data set [17] it was 2500 nM.

The term EC50 denotes the concentration at which the effect is half-maximal. A higher EC50 goes with lower potency in that assay.
